Reference: paper PMC8161026, “Synthesis and Anticancer Activity Evaluation of 5-[2-Chloro-3-(4-nitrophenyl)-2-propenylidene]-4-thiazolidinones” (Molecules, 2021)

Legend:
MALME-3M = assay: NCI DTP 60 cell line screen, SRB; conditions: 48 h; for GI50 / CC50: Homo sapiens, Malme-3M; for CC50: read-out: LC50; for TGI: MALME-3M (Melanoma), SRB
MCF-7 = assay: NCI DTP 60 cell line screen, SRB; conditions: for GI50 / CC50: Homo sapiens, MCF7, 48 h; for CC50: read-out: LC50; for TGI: MCF-7 (Breast Cancer), 48 h, SRB
HL-60(TB) [1] = assay: cells; conditions: Homo sapiens, HL-60, 48 h; for CC50: read-out: LC50
RPMI-8226 = conditions: for TGI: RPMI-8226 (Leukemia), 48 h, SRB; for TI (Therapeutic Index): GI50 (normal blood lymphocyte)/GI50 (RPMI-8226)
SNB-19 = assay: NCI DTP 60 cell line screen, SRB; conditions: for GI50 / CC50: Homo sapiens, SNB-19, 48 h; for CC50: read-out: LC50; for TGI: SNB-19 (CNS Cancer), 48 h, SRB
AGS (gastric cancer) = assay: MTT cell viability assay; assay type: cell-based; conditions: Homo sapiens, 24 h
Method: (§1) In the second stage of the research, Ciminalum-thiazolidinone hybrids were investigated for antitumor activity on the lines of gastric cancer (AGS), human colon cancer (DLD-1), and breast cancers (MCF-7 and MDA-MB-231). The study was performed in the MTT assay according to the method described previously. The studied cancer line was sensitive to the action of the studied compounds that inhibited its growth in micromolar ranges of GI50. The hit compounds that inhibited the growth of all four cancer lines with the lowest GI50 values were [5-[2-chloro-3-(4-nitrophenyl)prop-2-enylidene]-rhodanines 2c, 2d, 2h, and 2i (Table 4).

MCF-7 (breast cancer) = assay: MTT cell viability assay; assay type: cell-based; conditions: Homo sapiens, MCF7; MCF-7, MTT, 24 h
Method: as §1

[2] = tested on: MDA-MB-231 (breast cancer); assay: MTT cell viability assay; assay type: cell-based; conditions: Homo sapiens; MDA-MB-231, MTT, 24 h
Method: as §1

[3] = tested on: DLD-1 (human colon cancer); assay: MTT cell viability assay; assay type: cell-based; conditions: DLD-1, MTT, 24 h
Method: as §1

KM12 = KM12 (Colon Cancer), 48 h, SRB
SN12C = SN12C (Renal Cancer), 48 h, SRB
IGROV1 = assay: NCI DTP 60 cell line screen, SRB; conditions: for GI50 / CC50: Homo sapiens, IGROV-1, 48 h; for CC50: read-out: LC50; for TGI: IGROV1 (Ovarian Cancer), 48 h, SRB
HL-60(TB) [4] = conditions: for TGI: HL-60(TB) (Leukemia), 48 h, SRB; for TI (Therapeutic Index): GI50 (normal blood lymphocyte)/GI50 (HL-60(TB))
DU-145 = assay: cells; conditions: Homo sapiens, DU-145, 48 h; for CC50: read-out: LC50
HCT-15 = assay: NCI DTP 60 cell line screen, SRB; conditions: for TGI: HCT-15 (Colon Cancer), 48 h, SRB; for GI50 / CC50: Homo sapiens, HCT-15, 48 h; for CC50: read-out: LC50
HOP-62 = assay: cells; conditions: Homo sapiens, HOP-62, 48 h; for CC50: read-out: LC50
in vitro = conditions: human
Method: (§2) Another part of our study was to determine the influence of compounds 2f, 2i, 2j, and 2h on normal human blood lymphocytes (Figure 5). […] Thus, normal blood lymphocytes are blood cells, as well as cells of leukemia cell lines, therapeutic index (TI) of compounds 2f, 2h, and 2j was calculated as GI50 (normal blood lymphocyte)/GI50 (leukemia cell line) (Table 5).
(§3) Figure 5 Human lymphocyte viability after 48 h of 2f, 2i, 2j, 2h, and Ciminalum drug exposure was estimated by MTT assay.
(§4) The assay was performed by using 3-(4,5-dimethylthiazole-2-yl)- 2,5-diphenyltetrazolium bromide (MTT). Confluent cells, cultured for 24 h with 0.1, 1, 5, 10, 20, 30, and 100 µM concentrations of studied compounds in 24-well plates were washed with PBS. MTT was dissolved in PBS, and 25 µL were added to each well. Plates were incubated for 4 h at 37 °C in 5% CO2 in an incubator. The medium with MTT was removed, and 1 mL of DMSO was added to the attached cells. Furthermore, cells were incubated for 5–10 min in RT and then 10 µl of Sorensen buffer was added to each well. The absorbance of converted dye in living cells was measured at a wavelength of 570 nm. The cell viability of breast cancer cells, gastric cancer cells, and human colon cancer cells cultured in the presence of ligands was calculated as percent of control cells.
(§5) First, 20 mL of venous blood was taken from volunteers (Ethical protocol number 2, 27 January 2019) and collected in the presence of 200 μL of undiluted fresh heparin (1/100). Sterile blood was diluted 2 times with 0.9% NaCl under the sterile conditions. Isolation of lymphocytes was performed in a density gradient of ficol-verografin using the protocol of the manufacturer (Lympoprep, NYCOMED PHARMA AS, Oslo Norway). The resulting lymphocytes were resuspended in the RPMI-1640 medium and cultured for several days (up to 10 days). To separate the lymphocytes from the monocytes, cell suspension was left for 24 h. After 24 h of culture, monocytes were attached, while lymphocytes were transferred to a fresh Falcon tube (15 mL). To stimulate the proliferation of lymphocytes, they were cultured on CD3+ antibody-coated plastic plate in the RPMI-1640 medium supplemented with 20% FBS.

[5] = tested on: normal human blood lymphocytes; assay: in vitro
Method: as §2, §3, §4, §5

Row | SMILES | GI50 (MALME-3M) [µM] | CC50 (MALME-3M) [µM] | TGI (MALME-3M) [µM] | GI50 (MCF-7) [µM] | CC50 (MCF-7) [µM] | TGI (MCF-7) [µM] | TGI (RPMI-8226) [µM] | GI50 (SNB-19) [µM] | CC50 (SNB-19) [µM] | TGI (SNB-19) [µM] | TGI (KM12) [µM] | TGI (SN12C) [µM] | GI50 (IGROV1) [µM] | CC50 (IGROV1) [µM] | TGI (IGROV1) [µM] | GI50 (DU-145) [µM] | CC50 (DU-145) [µM] | TGI (HCT-15) [µM] | GI50 (HCT-15) [µM] | CC50 (HCT-15) [µM] | further results
1 | O=C1NC(=S)S/C1=C\C(Cl)=C\c1ccc([N+](=O)[O-])cc1 [Compound 2b, 5-[(Z,2Z)-2-Chloro-3-(4-nitrophenyl)-2-propenylidene]-2-thioxo-4-thiazolidinone] | 4.93 | 44.6 | 14.9 | 2.14 | > 50 | 38.0 | 20.6 | 8.1 | > 50 | 21.4 | 14.6 | 18.0 | 7.28 | > 50 | 21.1 | 7.09 | 28.4 | 8.81 | 1.79 | 25.4 | GI50 (HL-60(TB) [1]): 1.21 µM; CC50 (HL-60(TB) [1]): > 50 µM; GI50 (AGS (gastric cancer)): 7.86 µM; GI50 (MCF-7 (breast cancer)): 4.79 µM; GI50 [2]: 10.6 µM; GI50 [3]: 8.39 µM; TGI (HL-60(TB) [4]): 14.4 µM; GI50 (HOP-62): 15.4 µM; CC50 (HOP-62): > 50 µM
2 | O=C1/C(=C/C(Cl)=C/c2ccc([N+](=O)[O-])cc2)SC(=S)N1/N=C\C(Cl)=C\c1ccc([N+](=O)[O-])cc1 [Compound 2c, 5-[(Z,2Z)-2-Chloro-3-(4-nitrophenyl)-2-propenylidene]-3-[(Z,2Z)-2-chloro-3-(4-nitrophenyl)-2-propenylideneamino]-2-thioxo-4-thiazolidinone] | 25 | > 100 | 60.4 | 4.08 | 83.7 | 19.8 | 6.32 | 48.3 | > 100 | > 100 | 59.1 | > 100 | 13.3 | 58.9 | 28.0 | 21.7 | > 100 | 33.0 | 16.6 | 65.7 | GI50 (HL-60(TB) [1]): 5.32 µM; CC50 (HL-60(TB) [1]): 87.2 µM; GI50 (AGS (gastric cancer)): 4.43 µM; GI50 (MCF-7 (breast cancer)): 3.6 µM; GI50 [2]: 1.59 µM; GI50 [3]: 6.34 µM; TGI (HL-60(TB) [4]): 23.3 µM; GI50 (HOP-62): 17.2 µM; CC50 (HOP-62): 91.9 µM
3 | O=C1/C(=C/C(Cl)=C/c2ccc([N+](=O)[O-])cc2)SC(=S)N1c1ccc(O)cc1 [Compound 2f, 5-[(Z,2Z)-2-Chloro-3-(4-nitrophenyl)-2-propenylidene]-3-(4-hydroxyphenyl)-2-thioxo-4-thiazolidinone] | 6.53 | 94.5 | 27.6 | 0.401 | > 100 | 28.0 | 0.264 | 10 | 97.5 | 32.0 | > 100 | 4.41 | 1.63 | > 100 | 6.13 | 0.666 | 50.1 | > 100 | 0.409 | > 100 | GI50 (HL-60(TB) [1]): 0.485 µM; CC50 (HL-60(TB) [1]): > 100 µM; TI (Therapeutic Index) (RPMI-8226): >10,000; GI50 at 48 h (in vitro): > 100 µM; toxicity toward normal human blood lymphocytes [5]: low toxicity; TI (Therapeutic Index) (HL-60(TB) [4]): >206.19; TGI (HL-60(TB) [4]): 4.48 µM; GI50 (HOP-62): 2.61 µM; CC50 (HOP-62): 11.6 µM
4 | O=C(O)CCN1C(=O)/C(=C/C(Cl)=C/c2ccc([N+](=O)[O-])cc2)SC1=S [Compound 2h, 3-{5-[(Z,2Z)-2-Chloro-3-(4-nitrophenyl)-2-propenylidene]-4-oxo-2-thioxothiazolidin-3-yl}propanoic acid] | 9.7 | > 100 | 61.9 | 0.239 | > 100 | 14.4 | 1.30 | 0.658 | 83.7 | 26.3 | 29.5 | 2.99 | 0.794 | 43.1 | 3.68 | 0.421 | 52.3 | 2.96 | 0.23 | > 100 | GI50 (HL-60(TB) [1]): 0.347 µM; CC50 (HL-60(TB) [1]): > 100 µM; TI (Therapeutic Index) (RPMI-8226): 395.22; GI50 (AGS (gastric cancer)): 2.69 µM; GI50 (MCF-7 (breast cancer)): 3.62 µM; GI50 [2]: 1.63 µM; GI50 [3]: 3.67 µM; GI50 at 48 h (in vitro): 54.5 µM; toxicity toward normal human blood lymphocytes [5]: low toxicity; TI (Therapeutic Index) (HL-60(TB) [4]): 157.18; TGI (HL-60(TB) [4]): 1.87 µM; GI50 (HOP-62): 6.54 µM; CC50 (HOP-62): 52.8 µM
5 | O=C(O)C(Cc1ccccc1)N1C(=O)/C(=C/C(Cl)=C/c2ccc([N+](=O)[O-])cc2)SC1=S (stereo not shown) [Compound 2j, 2-{5-[(Z,2Z)-2-Chloro-3-(4-nitrophenyl)-2-propenylidene]-4-oxo-2-thioxothiazolidin-3-yl}-3-phenylpropanoic acid] | 2.13 | > 100 | 4.82 | 2.38 | > 100 | 10.7 | > 100 | 1.85 | > 100 | > 100 | 4.35 | > 100 | 2.99 | > 100 | > 100 | 2.06 | 11.7 | 4.58 | 1.92 | > 100 | TI (Therapeutic Index) (RPMI-8226): 15.21; GI50 at 48 h (in vitro): 49 µM; toxicity toward normal human blood lymphocytes [5]: low toxicity; GI50 (HOP-62): 2.31 µM; CC50 (HOP-62): > 100 µM
